Test results as given in patent US10517889B2, “Modulators of SMAD7 expression” (Ionis Pharmaceuticals, Inc., priority 2017, dated 2019).
Several values for one entry are separate records, joined by “and”; a condition that tells them apart may be missing. Identical values can stand only once. Strand notation (5' to 3'): a small letter for the sugar, then the base; units joined by * are phosphorothioate-linked, units joined directly phosphodiester-linked; [ ] holds rarer units or linkages, { } end groups; capitals alone tell only the bases. k = constrained ethyl (cEt); [5mC] = 5-methylcytosine; d = 2'-deoxy (DNA)

Legend:
human SMAD7 mRNA [1] = experiment: Dose-dependent inhibition of human SMAD7 mRNA expression in Hep3B cells (Example 3, Study 1 and 2); type: cell-based; conditions: electroporation; for % inhibition of SMAD7 mRNA expression: approximately 16 hours; for IC50: Study 2 (740-20000 nM)
Method in brief: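 Hep3B cells, 20,000 per well, electroporated with antisense oligonucleotide at 0.31, 1.25, 5.00 or 20.00 μM (first series) or 0.74, 2.22, 6.67 or 20.00 μM (second series). After ~16 h, SMAD7 mRNA measured by RT-qPCR (RTS5062), normalised to RIBOGREEN total RNA. Percent inhibition vs untreated cells; IC50 derived.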

human SMAD7 mRNA [2] = experiment: Antisense inhibition of human SMAD7 mRNA expression in Hep3B cells by 3-10-3 cEt gapmers, 10,000 nM, electroporation (Example 2); type: cell-based; conditions: approximately 24 hours
Method in brief: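 Percent inhibition of SMAD7 mRNA, relative to untreated cells, after ~24 h exposure of electroporated Hep3B cells to 10,000 nM cEt gapmer; levels by qRT-PCR, corrected for total RNA.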

human SMAD7 mRNA [3] = experiment: Dose-dependent inhibition of human SMAD7 mRNA expression in Hep3B cells, comparison with ION 28453 (Example 4); type: cell-based; conditions: electroporation, approximately 16 hours; for IC50: SMAD7 mRNA
Experimental: Cells were plated at a density of 20,000 cells per well and transfected using electroporation with 0.25 μM, 0.74 μM, 2.22 μM, 6.67 μM, or 20.00 μM concentrations of antisense oligonucleotide, as specified in the Tables below. After a treatment period of approximately 16 hours, RNA was isolated from the cells and SMAD7 mRNA levels were measured by quantitative real-time PCR. Primer probe set RTS5062 was used to measure human SMAD7 mRNA levels. SMAD7 mRNA levels were adjusted according to total RNA content, as measured by RIBOGREEN®. Results are presented as percent inhibition of SMAD7 mRNa expression, relative to untreated control cells.
The half maximal inhibitory concentration (IC50) of each oligonucleotide is also presented. […] Several newly designed antisense oligonucleotides had greater potency than the previously disclosed lead compound, ION 28453.

mouse Smad7 mRNA [4] = experiment: Murine Smad7 mRNA expression after subcutaneous administration in BALB/c mice (Example 10); type: in vivo; conditions: 50 mg/kg subcutaneous once a week for 4 weeks, 24 hours after last dose
Experimental: The objective of this study was to evaluate the efficacy of Ionis SMAD7 antisense oligonucleotides compared to ION 736697/Mongersen in BALB/c mice following 4 weeks of treatment. Both ION 830025 and ION 798781 are cross-reactive with mouse Smad7 mRNA.
Groups of BALB/c mice were subcutaneously administered 50 mg/kg of Ionis SMAD7 oligonucleotides once a week for 4 weeks. Each group contained 4 mice. One group of mice was administered PBS once a week for 4 weeks. […]

mouse Smad7 mRNA [5] = experiment: Murine Smad7 mRNA expression after oral administration in BALB/c mice (Example 11); type: in vivo; conditions: 500 mg/kg/day oral for 3 weeks, 24 hours after last dose
Experimental: The objective of this study was to evaluate the efficacy of Ionis SMAD7 antisense oligonucleotides in BALB/c mice following daily oral administration. The Ionis oligonucleotides are cross-reactive with mouse Smad7 mRNA.
Groups of BALB/c mice were orally administered 500 mg/kg/day for 3 weeks of human Smad7 oligonucleotides, ION 790615, ION 798781, or ION 830025, or mouse Smad7 oligonucleotide, ION 772797 (a 3-10-3 cEt gapmer with phosphorothioate backbone and sequence […]; designated herein as SEQ ID NO: 2743). One group of mice was orally administered PBS daily for 3 weeks. Each group contained 4 mice.
To evaluate the efficacy of the oligonucleotides, murine Smad7 mRNA expression in the liver, kidneys, duodenum, ileum, and colon was measured using primer probe set RTS1114.

[6] = Organ weights after subcutaneous administration in CD-1 mice (Example 6); type: in vivo; conditions: end of study, 50 mg/kg subcutaneously twice a week for 7 weeks
Experimental: (§1) Groups of 8-9 week old male CD-1 mice were injected subcutaneously twice a week for 7 weeks with 50 mg/kg of Ionis oligonucleotides (100 mg/kg/week dose). Each group contained 4 mice. One group of male CD-1 mice was injected subcutaneously twice a week for 7 weeks with PBS. Plasma was collected for analysis on day 28.
Ionis SMAD7 oligonucleotides that caused any changes in organ weights outside the expected range for antisense oligonucleotides were excluded from further studies.

[7] = Plasma chemistry markers after subcutaneous administration in CD-1 mice (Example 6); type: in vivo; conditions: CD-1 mice plasma at day 46; 50 mg/kg subcutaneously twice a week for 7 weeks
Experimental: CD-1® mice (Charles River, Mass.) are a multipurpose mice model, frequently utilized for safety and efficacy testing. The mice were treated with Ionis human SMAD7 antisense oligonucleotides selected from studies described above and evaluated.
Groups of 8-9 week old male CD-1 mice were injected subcutaneously twice a week for 7 weeks with 50 mg/kg of Ionis oligonucleotides (100 mg/kg/week dose). Each group contained 4 mice. One group of male CD-1 mice was injected subcutaneously twice a week for 7 weeks with PBS. […]

[8] = Hematology assays after subcutaneous administration in CD-1 mice (Example 6); type: in vivo; parameters: RBC / Eosinophils / Monocytes: unit not given here; conditions: 50 mg/kg subcutaneous twice weekly for 7 weeks
Experimental: as §1
Blood obtained from all mouse groups was measured by an ADVIA2120i hematology analyzer (Siemens, USA) for measurements of the various blood cells, as well as other hematology markers.

[9] = 740 nM, Study 2, relative to untreated control cells
[10] = Hep3B cells, electroporation with 10,000 nM antisense oligonucleotide, primer probe set RTS5062, relative to untreated control cells
[11] = SMAD7 mRNA, Hep3B cells, 10,000 nM antisense oligonucleotide, electroporation, primer probe set RTS5062, relative to untreated control cells

772568 (antisense kA*kG*k[5mC]*d[5mC]*dT*d[5mC]*dT*dT*dG*dA*d[5mC]*dT*dT*k[5mC]*k[5mC]*kG) [compound 772568]
% inhibition of SMAD7 mRNA expression (human SMAD7 mRNA [1]; [9]): 41%
% inhibition of SMAD7 mRNA expression (human SMAD7 mRNA [1]; 2220 nM, Study 2): 62%
% inhibition of SMAD7 mRNA expression (human SMAD7 mRNA [1]; 6670.0 nM, Study 2): 58%
% inhibition of SMAD7 mRNA expression (human SMAD7 mRNA [1]; 20000.0 nM, Study 2): 79%
IC50 (human SMAD7 mRNA [1]): 1 µM
% inhibition of SMAD7 mRNA expression (human SMAD7 mRNA [2]; [10]): 82%
% Inhibition (human SMAD7 mRNA [2]; [11]): 45%
% inhibition of SMAD7 mRNA expression (human SMAD7 mRNA [3]; 0.74 μM): 0%
% inhibition of SMAD7 mRNA expression (human SMAD7 mRNA [3]; 2.22 μM): 22% and 25%
% inhibition of SMAD7 mRNA expression (human SMAD7 mRNA [3]; 6.67 μM): 36% and 47%
% inhibition of SMAD7 mRNA expression (human SMAD7 mRNA [3]; 20.00 μM): 61%
IC50 (human SMAD7 mRNA [3]): 13 µM and 9 µM

799184 (antisense kA*kA*k[5mC]*d[5mC]*dT*dT*dT*dG*dT*dA*dG*dT*dT*kA*kG*kA) [compound 799184]
% inhibition of SMAD7 mRNA expression (human SMAD7 mRNA [2]; [10]): 58%
% Inhibition (human SMAD7 mRNA [2]; [11]): 48%
% inhibition of SMAD7 mRNA expression (human SMAD7 mRNA [3]; 0.25 μM): 0%
% inhibition of SMAD7 mRNA expression (human SMAD7 mRNA [3]; 0.74 μM): 10%
% inhibition of SMAD7 mRNA expression (human SMAD7 mRNA [3]; 2.22 μM): 18%
% inhibition of SMAD7 mRNA expression (human SMAD7 mRNA [3]; 6.67 μM): 51%
% inhibition of SMAD7 mRNA expression (human SMAD7 mRNA [3]; 20.00 μM): 78%
IC50 (human SMAD7 mRNA [3]): 6 µM

801051 (antisense kG*kT*kG*dT*dT*d[5mC]*dA*dA*d[5mC]*dA*dA*dT*dG*k[5mC]*kT*kT) [compound 801051]
% inhibition of SMAD7 mRNA expression (human SMAD7 mRNA [1]; [9]): 52%
% inhibition of SMAD7 mRNA expression (human SMAD7 mRNA [1]; 2220 nM, Study 2): 62%
% inhibition of SMAD7 mRNA expression (human SMAD7 mRNA [1]; 6670.0 nM, Study 2): 76%
% inhibition of SMAD7 mRNA expression (human SMAD7 mRNA [1]; 20000.0 nM, Study 2): 88%
IC50 (human SMAD7 mRNA [1]): 4 µM
% Inhibition (human SMAD7 mRNA [2]; [11]): 68%
% inhibition of SMAD7 mRNA expression (human SMAD7 mRNA [3]; 0.25 μM): 0%
% inhibition of SMAD7 mRNA expression (human SMAD7 mRNA [3]; 0.74 μM): 10%
% inhibition of SMAD7 mRNA expression (human SMAD7 mRNA [3]; 2.22 μM): 34%
% inhibition of SMAD7 mRNA expression (human SMAD7 mRNA [3]; 6.67 μM): 62%
% inhibition of SMAD7 mRNA expression (human SMAD7 mRNA [3]; 20.00 μM): 83%
IC50 (human SMAD7 mRNA [3]): 4 µM

ION 736697: uniform deoxy phosphorothioate oligonucleotide GTCGCCCCTTCTCCCCGCAGC (SEQ ID NO: 2736), same sequence and chemistry as GED-0301 (Mongersen) (DNA, all phosphorothioate, methylation of C not given here) [reference compound]
Mouse Smad7 mRNA expression (% inhibition), Colon (mouse Smad7 mRNA [4]; colon): 3 % inhibition
Mouse Smad7 mRNA expression (% inhibition), Duodenum (mouse Smad7 mRNA [4]; duodenum): 0 % inhibition
Mouse Smad7 mRNA expression (% inhibition), Ileum (mouse Smad7 mRNA [4]; ileum): 0 % inhibition
Mouse Smad7 mRNA expression (% inhibition), Kidney (mouse Smad7 mRNA [4]; kidney): 9 % inhibition
Mouse Smad7 mRNA expression (% inhibition), Liver (mouse Smad7 mRNA [4]; liver): 6 % inhibition

772797 (AATGAACTGTATCTCC; sugars from the 5' end k3 d10 k3, all phosphorothioate, methylation of C not given here) [compound 772797]
Mouse Smad7 mRNA expression (% inhibition), Colon (mouse Smad7 mRNA [5]; colon): 1 % inhibition
Mouse Smad7 mRNA expression (% inhibition), Duodenum (mouse Smad7 mRNA [5]; duodenum): 36 % inhibition
Mouse Smad7 mRNA expression (% inhibition), Ileum (mouse Smad7 mRNA [5]; ileum): 8 % inhibition
Mouse Smad7 mRNA expression (% inhibition), Kidney (mouse Smad7 mRNA [5]; kidney): 0 % inhibition
Mouse Smad7 mRNA expression (% inhibition), Liver (mouse Smad7 mRNA [5]; liver): 7 % inhibition

830027 (antisense kA*kA*k[5mC]*d[5mC]*dA*dT*dT*dT*dA*dT*d[5mC]*dT*dG*kG*kT*kG) [compound 830027]
Organ weights, Kidneys [6]: 0.6 g
Organ weights, Liver [6]: 2.6 g
Organ weights, Spleen [6]: 0.2 g
ALT [7]: 40 IU/L
AST [7]: 104 IU/L
Albumin [7]: 2.5 g/dL
BUN [7]: 23 mg/dL
% Inhibition (human SMAD7 mRNA [2]; Hep3B cells, electroporation with 10,000 nM antisense oligonucleotide, SMAD7 mRNA by RT-PCR (RTS5062), relative to untreated control cells): 23%
Eosinophils [8]: 1.9
Hematocrit [8]: 44.7%
Hemoglobin [8]: 14.7 g/dL
Lymphocytes [8]: 64.4%
MCH [8]: 15.1 pg
MCHC [8]: 32.9 g/dL
MCV [8]: 46.3 fL
Monocytes [8]: 8.2
Neutrophils [8]: 25.6%
RBC [8]: 9.7
Reticulocytes [8]: 3.4%
WBC [8]: 8.6 10^3/μL
platelets [8]: 1141.8 10^3/μL

801040 (antisense kG*kT*k[5mC]*dA*dT*dG*dA*dA*dA*dG*dA*dT*dT*k[5mC]*kT*kT) [compound 801040]
% inhibition of SMAD7 mRNA expression (human SMAD7 mRNA [1]; [9]): 52%
% inhibition of SMAD7 mRNA expression (human SMAD7 mRNA [1]; 2220 nM, Study 2): 55%
% inhibition of SMAD7 mRNA expression (human SMAD7 mRNA [1]; 6670.0 nM, Study 2): 60%
% inhibition of SMAD7 mRNA expression (human SMAD7 mRNA [1]; 20000.0 nM, Study 2): 95%
IC50 (human SMAD7 mRNA [1]): 1 µM
% Inhibition (human SMAD7 mRNA [2]; [11]): 72%
% inhibition of SMAD7 mRNA expression (human SMAD7 mRNA [3]; 0.25 μM): 31%
% inhibition of SMAD7 mRNA expression (human SMAD7 mRNA [3]; 0.74 μM): 44%
% inhibition of SMAD7 mRNA expression (human SMAD7 mRNA [3]; 2.22 μM): 67%
% inhibition of SMAD7 mRNA expression (human SMAD7 mRNA [3]; 6.67 μM): 63%
% inhibition of SMAD7 mRNA expression (human SMAD7 mRNA [3]; 20.00 μM): 91%
IC50 (human SMAD7 mRNA [3]): 1 µM
